Assay results published in US10428080B2, “TBK/IKK inhibitor compounds and uses thereof” (Merck Patent GmbH, priority 2015, dated 2019).
Read-outs that look alike come from different tables or passages of the source.

Columns and labels:
[1] = tested on: phosphorylation of the IRF-3 protein in MDA-MB-468 cells; assay: pIRF3 immunocytochemistry cell based assay; settings: Homo sapiens
Method in brief: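 After 2 h stimulation with Poly(I:C) (10 ug/ml), following 1 h compound pre-treatment (10-point, 3-fold dilution, top 10 uM), MDA-MB-468 cells were fixed and stained with anti-pIRF3 antibody. pIRF3 fluorescence was normalized to PI staining or cell count on an Acumen cytometer. IC50 curves were derived from this.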

TBK1 = target: T1, TBK1 (Homo sapiens, UniProt Q9UHD2); assay: TBK Biochemical Assay; settings: read-out: TBK1 IC50
T1 sequence (Q9UHD2 1-729): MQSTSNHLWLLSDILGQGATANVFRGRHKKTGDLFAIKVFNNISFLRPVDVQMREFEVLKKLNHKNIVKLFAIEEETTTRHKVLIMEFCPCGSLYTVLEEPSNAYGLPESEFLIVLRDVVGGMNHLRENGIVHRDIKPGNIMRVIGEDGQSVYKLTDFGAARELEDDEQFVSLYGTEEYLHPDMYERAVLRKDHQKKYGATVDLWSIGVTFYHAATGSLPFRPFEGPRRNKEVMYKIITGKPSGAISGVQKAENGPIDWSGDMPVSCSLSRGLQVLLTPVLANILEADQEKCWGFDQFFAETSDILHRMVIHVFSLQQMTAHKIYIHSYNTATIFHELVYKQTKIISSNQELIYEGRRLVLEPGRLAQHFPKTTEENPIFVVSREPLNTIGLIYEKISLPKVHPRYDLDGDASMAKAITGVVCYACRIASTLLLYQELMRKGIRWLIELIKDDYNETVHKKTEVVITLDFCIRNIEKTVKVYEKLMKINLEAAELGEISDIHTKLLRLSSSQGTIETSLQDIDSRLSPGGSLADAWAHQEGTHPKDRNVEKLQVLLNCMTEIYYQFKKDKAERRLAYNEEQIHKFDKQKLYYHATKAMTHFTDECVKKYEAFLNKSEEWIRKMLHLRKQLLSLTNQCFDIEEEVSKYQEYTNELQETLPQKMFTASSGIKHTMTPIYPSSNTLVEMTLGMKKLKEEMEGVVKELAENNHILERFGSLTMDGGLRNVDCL
Method in brief: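 Caliper LabChip mobility-shift readout of substrate and product after 90 min of TBK1 reaction at 25° C and stop-buffer addition. Compounds tested in 1:4 serial dilution over 10 points from 30 uM final at 1% DMSO; staurosporine 10 uM final defines full inhibition.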

IKKε = target: T2, IKKε (Homo sapiens, UniProt Q14164); assay: IKKe Biochemical Assay; settings: read-out: IKKε IC50
T2 sequence (Q14164 1-716): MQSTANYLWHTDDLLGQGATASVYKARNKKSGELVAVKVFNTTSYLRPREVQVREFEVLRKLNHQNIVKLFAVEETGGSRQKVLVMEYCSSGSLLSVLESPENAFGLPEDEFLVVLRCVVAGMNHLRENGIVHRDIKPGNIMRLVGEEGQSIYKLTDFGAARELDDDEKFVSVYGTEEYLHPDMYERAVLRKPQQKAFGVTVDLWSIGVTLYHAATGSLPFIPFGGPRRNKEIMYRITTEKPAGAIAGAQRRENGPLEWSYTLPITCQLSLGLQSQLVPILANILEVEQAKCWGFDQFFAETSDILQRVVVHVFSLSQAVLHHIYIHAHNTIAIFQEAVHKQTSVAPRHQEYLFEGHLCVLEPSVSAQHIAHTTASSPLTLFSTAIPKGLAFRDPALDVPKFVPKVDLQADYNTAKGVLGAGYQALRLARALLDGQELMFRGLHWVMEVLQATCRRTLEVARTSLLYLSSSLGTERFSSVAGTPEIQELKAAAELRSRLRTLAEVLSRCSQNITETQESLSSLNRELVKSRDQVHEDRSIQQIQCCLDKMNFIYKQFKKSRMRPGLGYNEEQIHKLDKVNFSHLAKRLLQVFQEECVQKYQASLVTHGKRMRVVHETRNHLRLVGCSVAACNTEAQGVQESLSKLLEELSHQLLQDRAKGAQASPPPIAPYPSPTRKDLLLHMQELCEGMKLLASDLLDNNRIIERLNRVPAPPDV
Method in brief: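 Activity was measured as mobility-shift separation of phosphorylated from unphosphorylated substrate on a LabChip EZ Reader. Compound was titrated from 30 uM final in 10 points, 1:4 steps, with 1% DMSO, and enzyme plus substrate reacted 90 min at 25° C before stop buffer. Control wells held 10 uM staurosporine.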

[2] = MDA-MB-468 cells, Poly(I:C) stimulation, read-out: pIRF3 IC50

Row | SMILES | IC50 [1, 2] [nM] | IC50 (TBK1) [nM] | IC50 (IKKε) [nM] | IC50 ([1]; MDA-MB-468, read-out: pIRF3 IC50) [nM]
1 | COc1cc(C(=O)NC2CN(C(C)C)C2)ccc1-c1cc2nccc(-c3ccc(OC4CCOCC4)c(C#N)c3)c2o1 [Compound 364, 4-(7-(3-cyano-4-(tetrahydro-2H-pyran-4-yloxy)phenyl)furo[3,2-b]pyridin-2-yl)-N-(1-isopropylazetidin-3-yl)-3-methoxybenzamide] | 100 to 1000 | < 100 | < 100 | 
2 | COc1cc(C(=O)NC2CN(C)CCC2O)ccc1-c1cc2nccc(-c3ccc(OC4CCOCC4)c(C#N)c3)c2o1 (stereo not drawn) [Compound 348, 4-[7-[3-cyano-4-(oxan-4-yloxy)phenyl]furo[3,2-b]pyridin-2-yl]-N-(4-hydroxy-1-methylpiperidin-3-yl)-3-methoxybenzamide] | 100 to 1000 | < 100 | < 100 | 
3 | N#Cc1cc(-c2ccnc3cc(-c4ccc(C(=O)NC5CN6CCC5CC6)cc4F)oc23)ccc1OC1CCOCC1 (stereo not drawn) [Compound 139, N-(1-Aza-bicyclo[2.2.2]oct-3-yl)-4-{7-[3-cyano-4-(tetrahydro-pyran-4-yloxy)-phenyl]-furo[3,2-b]pyridin-2-yl}-3-fluoro-benzamide] | 100 to 1000 | < 100 | < 100 | 
4 | COc1cc(C(=O)N2CC3CC(C2)O3)cnc1-c1cc2nccc(-c3ccc(OC4CCOCC4)c(C#N)c3)c2o1 [Compound 435, 5-[2-[3-methoxy-5-([6-oxa-3-azabicyclo[3.1.1]heptan-3-yl]carbonyl)pyridin-2-yl]furo[3,2-b]pyridin-7-yl]-2-(oxan-4-yloxy)benzonitrile] | < 100 | < 100 | < 100 | 
5 | COc1cc(C(=O)N2CC3CN(C)CC3C2)cnc1-c1cc2nccc(-c3ccc(N4CC[C@@H](F)C4)c(C#N)c3)c2o1 (stereo partly drawn) [Compound 452, 2-[(3R)-3-fluoropyrrolidin-1-yl]-5-[2-[3-methoxy-5-([5-methyl-octahydropyrrolo[3,4-c]pyrrol-2-yl]carbonyl)pyridin-2-yl]furo[3,2-b]pyridin-7-yl]benzonitrile] |  | < 100 | < 100 | 100 to 1000
6 | COc1cc(C(=O)N2CC3CC2CO3)ccc1-c1cc2nccc(-c3ccc(OC4CCOCC4)c(C#N)c3)c2o1 (stereo not drawn) [Compound 1, 5-{2-[2-Methoxy-4-(2-oxa-5-aza-bicyclo[2.2.1]heptane-5-carbonyl)-phenyl]-furo[3,2-b]pyridin-7-yl}-2-(tetrahydro-pyran-4-yloxy)-benzonitrile] | < 100 | < 100 | < 100 | 

More lines, main results first:

Row | IC50 [1, 2] [nM] | IC50 (TBK1) [nM] | IC50 (IKKε) [nM] | SMILES | IC50 ([1]; MDA-MB-468, read-out: pIRF3 IC50) [nM]
7 | 100 to 1000 | 100 to 1000 | < 100 | N#Cc1cc(-c2ccnc3cc(-c4ccc(C(=O)O)cc4)oc23)ccc1OC1CCCOC1 (stereo not drawn) [Compound 166] | 
8 | 100 to 1000 | < 100 | < 100 | COc1cc(C(=O)NC2(CO)COC2)ccc1-c1cc2nccc(-c3ccc(OC4CCOCC4)c(C#N)c3)c2o1 [Compound 51, 4-{7-[3-Cyano-4-(tetrahydro-pyran-4-yloxy)-phenyl]-furo[3,2-b]pyridin-2-yl}-N-(3-hydroxymethyl-oxetan-3-yl)-3-methoxy-benzamide] | 
9 | 100 to 1000 | < 100 | < 100 | COc1cc(C(=O)N(C)C)ccc1-c1cc2nccc(-c3ccc(OC4CCN(C(C)=O)CC4)c(C#N)c3)c2o1 [Compound 112, 4-{7-[4-(1-Acetyl-piperidin-4-yloxy)-3-cyano-phenyl]-furo[3,2-b]pyridin-2-yl}-3-methoxy-N,N-dimethyl-benzamide] | 
10 | < 100 | < 100 | < 100 | COc1cc(C(=O)N2CC3CN(C)CC3C2)ccc1-c1cc2nccc(-c3ccc(NC4CCOCC4)c(C#N)c3)c2o1 (stereo not drawn) [Compound 73, 5-{2-[2-Methoxy-4-(5-methyl-hexahydro-pyrrolo[3,4-c]pyrrole-2-carbonyl)-phenyl]-furo[3,2-b]pyridin-7-yl}-2-(tetrahydro-pyran-4-ylamino)-benzonitrile] | 
